Patent US11697648B2, “Fused pyrimidine pyridinone compounds as JAK inhibitors” (THERAVANCE BIOPHARMA R&D IP, LLC, priority 2019, dated 2023)

Tests used:
JAK1 = JAK1 (Homo sapiens (Human), UniProt P23458); assay: Biochemical JAK1 kinase assay (LanthaScreen)
How it was run: (§1)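 GST-JAK + GFP-STAT1 peptide, HEPES pH 7.5/MgCl2/EGTA/Brij-35 buffer; cpd preincubation 1 h RT; ATP start, 1 h RT; stop with 10 mM EDTA + 2 nM Tb-anti-pSTAT1; TR-FRET 520/495. 4-parameter IC50 → pKi (Cheng-Prusoff).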

JAK2 = JAK2 (Homo sapiens (Human), UniProt O60674); assay: Biochemical JAK2 kinase assay (LanthaScreen)
How it was run: as §1

JAK3 = JAK3 (Homo sapiens (Human), UniProt P52333); assay: Biochemical JAK3 kinase assay (LanthaScreen); conditions: for JAK3 (pKi)-JAK1 (pKi): selectivity JAK3 over JAK1, difference of pKi
How it was run: as §1

Tyk2 = Tyk2 (Homo sapiens (Human), UniProt P29597); assay: Biochemical Tyk2 kinase assay (LanthaScreen)
How it was run: as §1

[1] = system: IL-2 stimulated STAT5 phosphorylation in Tall-1 human T cell line (JAK3); assay: Cellular JAK3 potency assay: inhibition of IL-2 stimulated pSTAT5 in Tall-1 T cells; assay type: cell-based; conditions: IL-2 stimulated pSTAT5, Tall-1 T cells
How it was run: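 AlphaLISA SureFire Ultra measures STAT5 Tyr694/699 phosphorylation in lysed Tall-1 human T cells. Cells were exposed to compound for 1 h at 37 °C before a 30 min IL-2 challenge (300 ng/ml final). Values are pIC50 means with standard deviation from signal-versus-concentration curves.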

[2] = Colon and plasma mouse pharmacokinetics; assay type: in vivo; conditions: male Balb/c mice, 10 mg/kg PO, ratio of the colon AUC to the plasma AUC
Description: Assay 5: Colon and Plasma Mouse Pharmacokinetics
To 6 male Balb/c mice was administered 10 mg/kg of compound in 1% HPMC+0.1% Tween-80 by PO administration. At 0.5, 2 and 6 hours after dose administration, animals were anesthetized, and terminal blood samples were collected by cardiac puncture, followed by collection of colon contents and colon tissue.
Blood samples were collected into K2EDTA and stored on wet ice until processed to plasma by centrifugation (12000 rpm at 4° C.). Plasma samples were transferred to cluster tubes and placed on dry ice prior to freezer storage. The colon contents from each animal were collected at each terminal blood collection time point. The colon tissues were flushed with saline and patted dry. The colon and colon content tissues were homogenized using sterile water containing 0.1% formic acid 9:1 (water:tissue, v/w). The homogenized tissues and colon contents were transferred to cluster tubes and placed on dry ice prior to freezer storage. All samples were analyzed using LC/MS/MS against analytical standards.
The composite pharmacokinetic parameters of the compounds were determined by non-compartmental analysis using Phoenix WinNonlin Version 6 (Certara, St. Louis, Mo.) and using mean values from 2 animals/time point. For plasma concentrations below the quantification limit (BQL), the lowest concentration measurable or the BLOQ (below limit of quantification) was used.
A colon to plasma ratio was determined as the ratio of the colon AUC to the plasma AUC.

Caco-2 cell monolayers = assay: Caco-2 permeation assay; assay type: in vitro ADME; conditions: 5 μM, A-B direction, with Verapamil (25 μM)
How it was run: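 Passive A-to-B permeability with P-gp inhibited by verapamil (25 μM); compound at 5 μM, n=2. Both compartments sampled at t0 and t120 and quantified by LC-MS/MS, giving apparent permeability in cm/sec from flux, area and concentration.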

Chain of JAK3 (P52333 whole entry): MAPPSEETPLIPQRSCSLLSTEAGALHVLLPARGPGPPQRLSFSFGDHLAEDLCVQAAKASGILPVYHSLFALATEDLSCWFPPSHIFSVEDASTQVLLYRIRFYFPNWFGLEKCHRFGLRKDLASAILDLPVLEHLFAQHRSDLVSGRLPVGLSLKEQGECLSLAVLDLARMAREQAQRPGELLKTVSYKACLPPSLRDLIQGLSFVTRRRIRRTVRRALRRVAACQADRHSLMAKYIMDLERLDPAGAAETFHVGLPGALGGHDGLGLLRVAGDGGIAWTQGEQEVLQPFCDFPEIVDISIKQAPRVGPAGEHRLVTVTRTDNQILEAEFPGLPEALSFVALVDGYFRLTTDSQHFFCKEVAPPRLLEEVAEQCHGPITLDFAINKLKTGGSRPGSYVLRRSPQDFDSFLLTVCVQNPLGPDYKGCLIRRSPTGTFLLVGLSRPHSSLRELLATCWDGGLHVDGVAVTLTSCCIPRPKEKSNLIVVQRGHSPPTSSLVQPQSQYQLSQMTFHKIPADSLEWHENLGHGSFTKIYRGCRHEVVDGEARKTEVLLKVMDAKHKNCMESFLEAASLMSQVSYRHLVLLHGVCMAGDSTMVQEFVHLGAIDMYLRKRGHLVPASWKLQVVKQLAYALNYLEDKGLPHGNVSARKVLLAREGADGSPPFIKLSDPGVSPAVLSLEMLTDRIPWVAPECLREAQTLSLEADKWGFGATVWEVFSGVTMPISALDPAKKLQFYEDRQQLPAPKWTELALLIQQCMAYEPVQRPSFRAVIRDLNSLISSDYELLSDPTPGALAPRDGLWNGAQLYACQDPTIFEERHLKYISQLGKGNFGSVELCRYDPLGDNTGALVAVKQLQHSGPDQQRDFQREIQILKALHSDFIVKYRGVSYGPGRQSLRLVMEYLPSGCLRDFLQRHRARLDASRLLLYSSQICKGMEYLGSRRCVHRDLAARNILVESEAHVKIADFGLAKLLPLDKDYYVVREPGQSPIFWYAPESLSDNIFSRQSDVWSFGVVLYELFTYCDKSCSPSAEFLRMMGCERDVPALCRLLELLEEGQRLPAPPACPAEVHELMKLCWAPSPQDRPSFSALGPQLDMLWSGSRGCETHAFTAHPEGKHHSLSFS
Chain of JAK1 (P23458 whole entry): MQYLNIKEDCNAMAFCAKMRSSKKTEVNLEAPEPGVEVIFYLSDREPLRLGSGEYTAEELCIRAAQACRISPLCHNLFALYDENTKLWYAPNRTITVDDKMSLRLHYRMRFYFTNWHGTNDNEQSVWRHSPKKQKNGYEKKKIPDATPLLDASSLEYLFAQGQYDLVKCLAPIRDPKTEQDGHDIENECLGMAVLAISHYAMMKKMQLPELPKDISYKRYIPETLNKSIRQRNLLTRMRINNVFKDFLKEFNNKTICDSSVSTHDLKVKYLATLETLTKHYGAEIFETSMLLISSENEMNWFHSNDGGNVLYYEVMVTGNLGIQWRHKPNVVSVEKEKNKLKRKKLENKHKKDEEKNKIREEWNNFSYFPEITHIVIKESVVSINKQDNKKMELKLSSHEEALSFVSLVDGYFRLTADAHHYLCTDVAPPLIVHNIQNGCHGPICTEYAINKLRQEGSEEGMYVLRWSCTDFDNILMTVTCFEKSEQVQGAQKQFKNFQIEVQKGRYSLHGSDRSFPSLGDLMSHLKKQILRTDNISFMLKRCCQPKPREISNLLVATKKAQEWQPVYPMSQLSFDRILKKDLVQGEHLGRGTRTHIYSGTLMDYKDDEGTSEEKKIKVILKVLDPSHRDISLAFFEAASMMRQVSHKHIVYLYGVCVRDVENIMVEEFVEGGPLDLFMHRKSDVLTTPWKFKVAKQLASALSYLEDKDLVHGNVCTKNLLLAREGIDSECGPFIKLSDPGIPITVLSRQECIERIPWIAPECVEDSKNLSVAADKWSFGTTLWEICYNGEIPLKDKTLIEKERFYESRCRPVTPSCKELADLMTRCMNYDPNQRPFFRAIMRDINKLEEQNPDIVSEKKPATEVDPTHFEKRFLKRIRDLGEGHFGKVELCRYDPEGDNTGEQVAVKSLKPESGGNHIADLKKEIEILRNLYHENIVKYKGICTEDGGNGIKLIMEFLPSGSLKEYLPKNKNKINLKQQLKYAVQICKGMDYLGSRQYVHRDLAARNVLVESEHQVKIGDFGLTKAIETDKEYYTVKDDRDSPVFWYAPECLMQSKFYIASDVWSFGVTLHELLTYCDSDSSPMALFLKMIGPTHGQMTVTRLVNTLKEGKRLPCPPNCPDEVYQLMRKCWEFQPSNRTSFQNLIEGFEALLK
Chain of JAK2 (O60674 whole entry): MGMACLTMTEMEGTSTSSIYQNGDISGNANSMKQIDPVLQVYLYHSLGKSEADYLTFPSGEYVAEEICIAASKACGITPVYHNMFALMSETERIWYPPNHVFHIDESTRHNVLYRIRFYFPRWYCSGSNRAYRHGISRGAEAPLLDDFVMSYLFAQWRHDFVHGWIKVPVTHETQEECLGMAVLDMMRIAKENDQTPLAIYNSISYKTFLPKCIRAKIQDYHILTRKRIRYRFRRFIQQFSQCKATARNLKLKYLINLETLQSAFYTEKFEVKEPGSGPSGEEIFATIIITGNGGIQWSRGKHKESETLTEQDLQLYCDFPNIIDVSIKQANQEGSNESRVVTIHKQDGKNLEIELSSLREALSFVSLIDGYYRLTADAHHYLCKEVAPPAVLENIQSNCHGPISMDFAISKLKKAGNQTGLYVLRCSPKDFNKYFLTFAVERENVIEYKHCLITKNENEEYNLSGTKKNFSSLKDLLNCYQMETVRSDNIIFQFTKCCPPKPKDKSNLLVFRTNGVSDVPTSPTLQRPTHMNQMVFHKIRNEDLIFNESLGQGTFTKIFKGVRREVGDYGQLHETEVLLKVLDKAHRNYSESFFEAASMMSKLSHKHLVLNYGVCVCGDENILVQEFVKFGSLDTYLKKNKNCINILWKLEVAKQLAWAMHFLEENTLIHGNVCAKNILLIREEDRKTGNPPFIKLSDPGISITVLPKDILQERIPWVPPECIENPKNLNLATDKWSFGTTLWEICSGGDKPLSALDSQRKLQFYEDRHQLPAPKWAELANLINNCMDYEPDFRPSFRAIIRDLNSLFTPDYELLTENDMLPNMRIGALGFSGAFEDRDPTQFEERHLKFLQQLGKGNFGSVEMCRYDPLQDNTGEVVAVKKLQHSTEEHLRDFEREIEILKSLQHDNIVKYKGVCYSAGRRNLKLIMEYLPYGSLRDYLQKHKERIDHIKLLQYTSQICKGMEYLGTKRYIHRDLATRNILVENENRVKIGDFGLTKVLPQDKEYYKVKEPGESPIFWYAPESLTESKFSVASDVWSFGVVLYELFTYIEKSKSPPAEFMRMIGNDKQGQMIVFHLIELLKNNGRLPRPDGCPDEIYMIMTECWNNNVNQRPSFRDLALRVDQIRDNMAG
Chain of Tyk2 (P29597 whole entry): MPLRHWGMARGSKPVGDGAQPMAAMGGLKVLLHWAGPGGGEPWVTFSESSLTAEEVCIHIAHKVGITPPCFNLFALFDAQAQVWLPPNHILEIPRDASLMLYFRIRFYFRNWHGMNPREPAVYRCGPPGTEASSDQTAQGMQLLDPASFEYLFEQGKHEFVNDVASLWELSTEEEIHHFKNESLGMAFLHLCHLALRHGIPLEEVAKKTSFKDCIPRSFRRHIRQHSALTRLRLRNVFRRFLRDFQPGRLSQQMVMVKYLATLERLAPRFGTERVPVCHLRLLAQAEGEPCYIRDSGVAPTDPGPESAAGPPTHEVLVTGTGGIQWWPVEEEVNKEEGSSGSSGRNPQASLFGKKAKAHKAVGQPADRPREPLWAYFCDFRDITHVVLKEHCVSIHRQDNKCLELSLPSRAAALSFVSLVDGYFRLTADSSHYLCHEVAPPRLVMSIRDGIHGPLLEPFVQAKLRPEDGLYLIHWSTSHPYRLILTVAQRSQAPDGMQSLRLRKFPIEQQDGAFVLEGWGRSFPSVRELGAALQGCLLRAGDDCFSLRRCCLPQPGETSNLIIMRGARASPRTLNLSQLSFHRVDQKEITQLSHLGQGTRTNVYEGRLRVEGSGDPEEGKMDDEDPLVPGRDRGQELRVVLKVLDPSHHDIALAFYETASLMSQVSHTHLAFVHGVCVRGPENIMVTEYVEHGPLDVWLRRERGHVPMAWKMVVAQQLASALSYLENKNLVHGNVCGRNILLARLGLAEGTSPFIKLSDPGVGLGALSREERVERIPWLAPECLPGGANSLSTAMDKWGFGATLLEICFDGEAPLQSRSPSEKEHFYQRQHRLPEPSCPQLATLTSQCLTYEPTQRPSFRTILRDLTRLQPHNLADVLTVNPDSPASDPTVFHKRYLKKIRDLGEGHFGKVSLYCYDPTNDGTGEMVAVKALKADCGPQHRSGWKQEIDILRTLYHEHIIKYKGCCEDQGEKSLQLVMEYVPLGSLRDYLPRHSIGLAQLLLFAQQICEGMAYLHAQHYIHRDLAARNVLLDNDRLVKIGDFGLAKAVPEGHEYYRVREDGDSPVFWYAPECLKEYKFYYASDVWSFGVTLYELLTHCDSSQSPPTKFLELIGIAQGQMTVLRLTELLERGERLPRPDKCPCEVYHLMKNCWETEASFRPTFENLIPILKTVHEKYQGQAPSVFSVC

C=CC(=O)N1CC(C(C)Cn2c(=O)ccc3cnc(Nc4ccc(N5CCN(C(C)=O)CC5)cc4)nc32)C1 (centres unmarked) [Example 156]
JAK 1 (pKi) (JAK1): E (E represents a pKi value of 7 or below (Ki of 100 nM or above)) | JAK 2 (pKi) (JAK2): E (E represents a pKi value of 7 or below (Ki of 100 nM or above)) | JAK 3 (pKi) (JAK3): B (B represents pKi value between 9 and 10 (Ki between 1 nM and 0.1 nM)) | JAK3 (pKi)-JAK1 (pKi) (JAK3): A (A represents a value of 3 or above) | Tyk 2 (pKi) (Tyk2): E (E represents a pKi value of 7 or below (Ki of 100 nM or above)) | Tall-1 (pIC50) [1]: B (B represents a pC50 value between 6.7 (included) and 7.5 (IC50 between 200 nM and 32 nM)) | Kp ([2]; mouse, colon tissue / plasma): > 14

C=CC(=O)N1CC(CCn2c(=O)ccc3cnc(Nc4cccc(N5CCN(C(=O)COC)CC5)c4)nc32)C1 [Example 108]
JAK 1 (pKi) (JAK1): E (E represents a pKi value of 7 or below (Ki of 100 nM or above)) | JAK 2 (pKi) (JAK2): E (E represents a pKi value of 7 or below (Ki of 100 nM or above)) | JAK 3 (pKi) (JAK3): B (B represents pKi value between 9 and 10 (Ki between 1 nM and 0.1 nM)) | JAK3 (pKi)-JAK1 (pKi) (JAK3): A (A represents a value of 3 or above) | Tyk 2 (pKi) (Tyk2): E (E represents a pKi value of 7 or below (Ki of 100 nM or above)) | Tall-1 (pIC50) [1]: B (B represents a pC50 value between 6.7 (included) and 7.5 (IC50 between 200 nM and 32 nM)) | Caco Kp (Caco-2 cell monolayers): A (A represents a value below 5×10^−6 cm/sec)

C=CC(=O)N1C[C@H](Nc2ncnc3[nH]ccc23)CC[C@@H]1C [PF-06651600, 2-propen-1-one, 1-[(2S,5R)-2-methyl-5-(7-pyrrolo[2,3-d]pyrimidin-4-ylamino)-1-piperidinyl], reference compound]
colon to plasma ratio [2]: 2.8

C=CC(=O)N1CC(CCn2c(=O)ccc3cnc(Nc4ccc(N5CCN(C)CC5)c(OC)c4)nc32)C1 [Example 135]
JAK 1 (pKi) (JAK1): E (E represents a pKi value of 7 or below (Ki of 100 nM or above)) | JAK 2 (pKi) (JAK2): E (E represents a pKi value of 7 or below (Ki of 100 nM or above)) | JAK 3 (pKi) (JAK3): B (B represents pKi value between 9 and 10 (Ki between 1 nM and 0.1 nM)) | JAK3 (pKi)-JAK1 (pKi) (JAK3): A (A represents a value of 3 or above) | Tyk 2 (pKi) (Tyk2): E (E represents a pKi value of 7 or below (Ki of 100 nM or above)) | Tall-1 (pIC50) [1]: B (B represents a pC50 value between 6.7 (included) and 7.5 (IC50 between 200 nM and 32 nM)) | Caco Kp (Caco-2 cell monolayers): A (A represents a value below 5×10^−6 cm/sec)

C=CC(=O)N1CC(CCn2c(=O)ccc3cnc(Nc4ccc(N5CCN(C)CC5)c(O)c4)nc32)C1 [Example 136]
JAK 1 (pKi) (JAK1): E (E represents a pKi value of 7 or below (Ki of 100 nM or above)) | JAK 2 (pKi) (JAK2): E (E represents a pKi value of 7 or below (Ki of 100 nM or above)) | JAK 3 (pKi) (JAK3): B (B represents pKi value between 9 and 10 (Ki between 1 nM and 0.1 nM)) | JAK3 (pKi)-JAK1 (pKi) (JAK3): A (A represents a value of 3 or above) | Tyk 2 (pKi) (Tyk2): E (E represents a pKi value of 7 or below (Ki of 100 nM or above)) | Tall-1 (pIC50) [1]: A (A represents a pIC50 value≥7.5 (IC50≤32 nM)) | Caco Kp (Caco-2 cell monolayers): A (A represents a value below 5×10^−6 cm/sec)

C=CC(=O)N1CC(CCn2c(=O)ccc3cnc(Nc4ccc(N5CCN(C(=O)[C@@H](C)O)CC5)cc4)nc32)C1 [Example 105]
JAK 1 (pKi) (JAK1): E (E represents a pKi value of 7 or below (Ki of 100 nM or above)) | JAK 2 (pKi) (JAK2): E (E represents a pKi value of 7 or below (Ki of 100 nM or above)) | JAK 3 (pKi) (JAK3): A (A represents a pKi value≥10 (Ki≤0.1 nM)) | JAK3 (pKi)-JAK1 (pKi) (JAK3): A (A represents a value of 3 or above) | Tyk 2 (pKi) (Tyk2): E (E represents a pKi value of 7 or below (Ki of 100 nM or above)) | Tall-1 (pIC50) [1]: B (B represents a pC50 value between 6.7 (included) and 7.5 (IC50 between 200 nM and 32 nM)) | Caco Kp (Caco-2 cell monolayers): A (A represents a value below 5×10^−6 cm/sec)

C=CC(=O)N1CC(CCn2c(=O)ccc3cnc(Nc4ccc(N5CCCCC5)cc4)nc32)C1 [Example 143]
JAK 1 (pKi) (JAK1): E (E represents a pKi value of 7 or below (Ki of 100 nM or above)) | JAK 2 (pKi) (JAK2): E (E represents a pKi value of 7 or below (Ki of 100 nM or above)) | JAK 3 (pKi) (JAK3): A (A represents a pKi value≥10 (Ki≤0.1 nM)) | JAK3 (pKi)-JAK1 (pKi) (JAK3): A (A represents a value of 3 or above) | Tyk 2 (pKi) (Tyk2): E (E represents a pKi value of 7 or below (Ki of 100 nM or above)) | Tall-1 (pIC50) [1]: B (B represents a pC50 value between 6.7 (included) and 7.5 (IC50 between 200 nM and 32 nM)) | Caco Kp (Caco-2 cell monolayers): C (C represents a value between 10×10^−6 and 30×10^−6 cm/sec)

C=CC(=O)N1CC(CCn2c(=O)ccc3cnc(Nc4ccc(N5CCN(C(=O)CC[S+](C)[O-])CC5)cc4)nc32)C1 (centres unmarked) [Example 139]
JAK 1 (pKi) (JAK1): E (E represents a pKi value of 7 or below (Ki of 100 nM or above)) | JAK 2 (pKi) (JAK2): E (E represents a pKi value of 7 or below (Ki of 100 nM or above)) | JAK 3 (pKi) (JAK3): A (A represents a pKi value≥10 (Ki≤0.1 nM)) | JAK3 (pKi)-JAK1 (pKi) (JAK3): A (A represents a value of 3 or above) | Tyk 2 (pKi) (Tyk2): E (E represents a pKi value of 7 or below (Ki of 100 nM or above)) | Tall-1 (pIC50) [1]: C (C represents a pIC50 value between 6 and 6.7 (IC50 between 1 μM and 200 nM)) | Caco Kp (Caco-2 cell monolayers): A (A represents a value below 5×10^−6 cm/sec)

C=CC(=O)N1CCN(CCn2c(=O)ccc3cnc(Nc4ccc(N5CCN(CCOC)CC5)cc4)nc32)CC1 [Example 208]
JAK 1 (pKi) (JAK1): E (E represents a pKi value of 7 or below (Ki of 100 nM or above)) | JAK 2 (pKi) (JAK2): E (E represents a pKi value of 7 or below (Ki of 100 nM or above)) | JAK 3 (pKi) (JAK3): B (B represents pKi value between 9 and 10 (Ki between 1 nM and 0.1 nM)) | JAK3 (pKi)-JAK1 (pKi) (JAK3): A (A represents a value of 3 or above) | Tyk 2 (pKi) (Tyk2): E (E represents a pKi value of 7 or below (Ki of 100 nM or above)) | Tall-1 (pIC50) [1]: B (B represents a pC50 value between 6.7 (included) and 7.5 (IC50 between 200 nM and 32 nM)) | Caco Kp (Caco-2 cell monolayers): B (B represents a value between 5×10^−6 and 10×10^−6 cm/sec)

C=CC(=O)N1CC(CCn2c(=O)ccc3cnc(Nc4ccc(N5CCN(C(=S)N(C)C)CC5)cc4)nc32)C1 [Example 95]
JAK 1 (pKi) (JAK1): E (E represents a pKi value of 7 or below (Ki of 100 nM or above)) | JAK 2 (pKi) (JAK2): E (E represents a pKi value of 7 or below (Ki of 100 nM or above)) | JAK 3 (pKi) (JAK3): A (A represents a pKi value≥10 (Ki≤0.1 nM)) | JAK3 (pKi)-JAK1 (pKi) (JAK3): A (A represents a value of 3 or above) | Tyk 2 (pKi) (Tyk2): E (E represents a pKi value of 7 or below (Ki of 100 nM or above)) | Tall-1 (pIC50) [1]: A (A represents a pIC50 value≥7.5 (IC50≤32 nM)) | Caco Kp (Caco-2 cell monolayers): A (A represents a value below 5×10^−6 cm/sec)

C=CC(=O)N1CC(CCn2c(=O)ccc3cnc(Nc4cnn(CCOC(F)F)c4)nc32)C1 [Example 25]
JAK 1 (pKi) (JAK1): E (E represents a pKi value of 7 or below (Ki of 100 nM or above)) | JAK 2 (pKi) (JAK2): E (E represents a pKi value of 7 or below (Ki of 100 nM or above)) | JAK 3 (pKi) (JAK3): B (B represents pKi value between 9 and 10 (Ki between 1 nM and 0.1 nM)) | JAK3 (pKi)-JAK1 (pKi) (JAK3): A (A represents a value of 3 or above) | Tyk 2 (pKi) (Tyk2): E (E represents a pKi value of 7 or below (Ki of 100 nM or above)) | Tall-1 (pIC50) [1]: C (C represents a pIC50 value between 6 and 6.7 (IC50 between 1 μM and 200 nM)) | Caco Kp (Caco-2 cell monolayers): B (B represents a value between 5×10^−6 and 10×10^−6 cm/sec)
